Assays:
[1] = Diastolic blood pressure (vital signs)
Procedure: The Investigational Medicinal Product (IMP) R(−)-ketamine hydrochloride in sterile water for intravenous injection was investigated as an […] treatment of TRD. The International Union of Pure and Applied Chemistry (IUPAC) name is of the IMP is (2R)-2-(2-chlorophenyl)-2-(methylamino)cyclohexan-1-one. Subjects received the solution at either 30 mg or 60 mg dose, or a placebo. The IMP or placebo was administered on Day 1 as a single IV infusion via an electronic infusion pump over 40 minutes. The duration of study participation for each subject was up to 29 days including a screening period, a 3-day in-clinic visit, and 2 follow-up visits. 101 subjects were enrolled in approximately 20 study centers in the EU and the US.
Tympanic or temporal temperature, heart rate, blood pressure (SBP/DBP), respiratory rate, and SpO2 were assessed. Blood pressure and pulse measurements will be assessed with a completely automated device while the subject is supine or semi-supine. Manual techniques will be used only if an automated device is not available. Blood pressure and pulse measurements should be preceded by at least 5 minutes of rest for the subject in a quiet setting without distractions (e.g., television, cell phones). An abnormal blood pressure value at screening may be repeated once after 5 minutes of relaxation to determine the subject's eligibility. Blood pressure was recorded using the same arm and position (supine or semi-supine) throughout the study, where possible. Vital signs (to be taken before blood collection for laboratory tests) consisted of 1 pulse and 3 blood pressure measurements (3 consecutive blood pressure readings will be recorded at intervals of at least 1 minute). The average of the 3 blood pressure readings was recorded in the CRF. A pulse oximeter was used to measure peripheral capillary oxygen saturation (SpO2) continuously from pre-dose until 4-hours post-dose. A pulse oximeter was clipped onto the finger or foot of the subject, and light will be sent through the finger or foot and measured on the other side.
In these tables, baseline value is defined as the last non-missing value prior to study drug administration.

[2] = test system: social defeat stress model in mice; conditions: cited from earlier work
CYP3A4 = experiment: In vitro CYP induction

## CN[C@@]1(c2ccccc2Cl)CCCCC1=O.Cl [R(−)-ketamine, (2R)-2-(2-chlorophenyl)-2-(methylamino)cyclohexan-1-one]
[1]; 30 mg
  Subjects with change from baseline diastolic blood pressure >25 mmHg, number: 1 n
  Subjects with change from baseline diastolic blood pressure >25 mmHg, percent: 3.0%
  Subjects with post-baseline diastolic blood pressure >110 mmHg, number: 0 n
  Subjects with post-baseline diastolic blood pressure >110 mmHg, percent: 0.0%
[1]; 30 mg, Day 1, 15 minutes
  Diastolic Blood Pressure: Mean: 77.4 mmHg
  Diastolic Blood Pressure: Median: 79.0 mmHg
[1]; 30 mg, Day 1, 40 minutes
  Diastolic Blood Pressure: Mean: 77.7 mmHg
  Diastolic Blood Pressure: Median: 81.0 mmHg
[1]; 30 mg, Day 1, 60 minutes
  Diastolic Blood Pressure: Mean: 75.4 mmHg
  Diastolic Blood Pressure: Median: 75.0 mmHg
[1]; 30 mg, Day 1, 2 hours
  Diastolic Blood Pressure: Mean: 77.3 mmHg
  Diastolic Blood Pressure: Median: 78.0 mmHg
[1]; 30 mg, Day 1, 4 hours
  Diastolic Blood Pressure: Mean: 76.1 mmHg
  Diastolic Blood Pressure: Median: 76.0 mmHg
[1]; 30 mg, Day 1, 6 hours
  Diastolic Blood Pressure: Mean: 75.2 mmHg
  Diastolic Blood Pressure: Median: 75.0 mmHg
[1]; 30 mg, Day 2 - Discharge
  Diastolic Blood Pressure: Mean: 74.7 mmHg
  Diastolic Blood Pressure: Median: 75.0 mmHg
[1]; 30 mg, Day 8
  Diastolic Blood Pressure: Mean: 75.8 mmHg
  Diastolic Blood Pressure: Median: 78.0 mmHg
[1]; 30 mg, Day 15
  Diastolic Blood Pressure: Mean: 78.9 mmHg
  Diastolic Blood Pressure: Median: 79.0 mmHg
[1]; 30 mg, to Day 1, 15 minutes
  Diastolic Blood Pressure: Change from Baseline, Mean: 0.5 mmHg
  Diastolic Blood Pressure: Change from Baseline, Median: 2.0 mmHg
[1]; 30 mg, to Day 1, 40 minutes
  Diastolic Blood Pressure: Change from Baseline, Mean: 1.0 mmHg
  Diastolic Blood Pressure: Change from Baseline, Median: 1.0 mmHg
[1]; 30 mg, to Day 1, 60 minutes
  Diastolic Blood Pressure: Change from Baseline, Mean: −1.2 mmHg
  Diastolic Blood Pressure: Change from Baseline, Median: −1.5 mmHg
[1]; 30 mg, to Day 1, 2 hours
  Diastolic Blood Pressure: Change from Baseline, Mean: 0.5 mmHg
  Diastolic Blood Pressure: Change from Baseline, Median: −1.0 mmHg
[1]; 30 mg, to Day 1, 4 hours
  Diastolic Blood Pressure: Change from Baseline, Mean: −0.6 mmHg
  Diastolic Blood Pressure: Change from Baseline, Median: −1.0 mmHg
[1]; 30 mg, to Day 1, 6 hours
  Diastolic Blood Pressure: Change from Baseline, Mean: −1.5 mmHg
  Diastolic Blood Pressure: Change from Baseline, Median: −3.0 mmHg
[1]; 30 mg, to Day 2 - Discharge
  Diastolic Blood Pressure: Change from Baseline, Mean: −2.0 mmHg
  Diastolic Blood Pressure: Change from Baseline, Median: −2.0 mmHg
[1]; 30 mg, to Day 8
  Diastolic Blood Pressure: Change from Baseline, Mean: −1.0 mmHg
  Diastolic Blood Pressure: Change from Baseline, Median: −1.0 mmHg
[1]; 30 mg, to Day 15
  Diastolic Blood Pressure: Change from Baseline, Mean: 2.1 mmHg
  Diastolic Blood Pressure: Change from Baseline, Median: 1.0 mmHg
[1]; 60 mg
  Subjects with change from baseline diastolic blood pressure >25 mmHg, number: 1 n
  Subjects with change from baseline diastolic blood pressure >25 mmHg, percent: 2.9%
  Subjects with post-baseline diastolic blood pressure >110 mmHg, number: 0 n
  Subjects with post-baseline diastolic blood pressure >110 mmHg, percent: 0.0%
[1]; 60 mg, Day 1, 15 minutes
  Diastolic Blood Pressure: Mean: 78.8 mmHg
  Diastolic Blood Pressure: Median: 79.5 mmHg
[1]; 60 mg, Day 1, 40 minutes
  Diastolic Blood Pressure: Mean: 78.1 mmHg
  Diastolic Blood Pressure: Median: 78.0 mmHg
[1]; 60 mg, Day 1, 60 minutes
  Diastolic Blood Pressure: Mean: 79.5 mmHg
  Diastolic Blood Pressure: Median: 77.0 mmHg
[1]; 60 mg, Day 1, 2 hours
  Diastolic Blood Pressure: Mean: 75.7 mmHg
  Diastolic Blood Pressure: Median: 75.0 mmHg
[1]; 60 mg, Day 1, 4 hours
  Diastolic Blood Pressure: Mean: 75.1 mmHg
  Diastolic Blood Pressure: Median: 74.0 mmHg
[1]; 60 mg, Day 1, 6 hours
  Diastolic Blood Pressure: Mean: 75.8 mmHg
  Diastolic Blood Pressure: Median: 76.5 mmHg
[1]; 60 mg, Day 2 - Discharge
  Diastolic Blood Pressure: Mean: 77.2 mmHg
  Diastolic Blood Pressure: Median: 77.0 mmHg
[1]; 60 mg, Day 8
  Diastolic Blood Pressure: Mean: 78.7 mmHg
  Diastolic Blood Pressure: Median: 78.0 mmHg
[1]; 60 mg, Day 15
  Diastolic Blood Pressure: Mean: 77.5 mmHg
  Diastolic Blood Pressure: Median: 78.0 mmHg
[1]; 60 mg, to Day 1, 15 minutes
  Diastolic Blood Pressure: Change from Baseline, Mean: 2.2 mmHg
  Diastolic Blood Pressure: Change from Baseline, Median: 1.5 mmHg
[1]; 60 mg, to Day 1, 40 minutes
  Diastolic Blood Pressure: Change from Baseline, Mean: 2.4 mmHg
  Diastolic Blood Pressure: Change from Baseline, Median: 2.0 mmHg
[1]; 60 mg, to Day 1, 60 minutes
  Diastolic Blood Pressure: Change from Baseline, Mean: 3.2 mmHg
  Diastolic Blood Pressure: Change from Baseline, Median: 4.0 mmHg
[1]; 60 mg, to Day 1, 2 hours
  Diastolic Blood Pressure: Change from Baseline, Mean: −0.1 mmHg
  Diastolic Blood Pressure: Change from Baseline, Median: 0.0 mmHg
[1]; 60 mg, to Day 1, 4 hours
  Diastolic Blood Pressure: Change from Baseline, Mean: −0.6 mmHg
  Diastolic Blood Pressure: Change from Baseline, Median: 0.0 mmHg
[1]; 60 mg, to Day 1, 6 hours
  Diastolic Blood Pressure: Change from Baseline, Mean: −0.0 mmHg
  Diastolic Blood Pressure: Change from Baseline, Median: −1.0 mmHg
[1]; 60 mg, to Day 2 - Discharge
  Diastolic Blood Pressure: Change from Baseline, Mean: 1.5 mmHg
  Diastolic Blood Pressure: Change from Baseline, Median: 1.0 mmHg
[1]; 60 mg, to Day 8
  Diastolic Blood Pressure: Change from Baseline, Mean: 3.0 mmHg
  Diastolic Blood Pressure: Change from Baseline, Median: 3.0 mmHg
[1]; 60 mg, to Day 15
  Diastolic Blood Pressure: Change from Baseline, Mean: 1.7 mmHg
  Diastolic Blood Pressure: Change from Baseline, Median: 1.0 mmHg
[2]
  Anti-depressant effects: more potent and long lasting anti-depressant effects when compared to S(+)-ketamine
CYP3A4
  CYP3A4 induction: inducer
